From patent US20240366770A1, “DEGRADATION OF BRUTON'S TYROSINE KINASE (BTK) BY CONJUGATION OF BTK INHIBITORS WITH E3 LIGASE LIGAND AND METHODS OF USE” (BeiGene Switzerland GmbH, priority 2021, published 2024)

Legend:
[1] = target: T1, BTK (Homo sapiens, UniProt Q06187); assay: BTK degradation in TMD-8 cells (HTRF assay); type: cell-based; settings: 6 h treatment, IC50 (DC50) of BTK degradation
T1 construct: High control=Cell group with added DMSO and without compound, indicating microplate readings without BTK degradation; endogenous in cells; host or cells: TMD-8
Summary of the method: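 BTK remaining after compound treatment was measured by HTRF (337 nm excitation, 665/620 nm emission) in lysates of TMD-8 cells. Cells were exposed for 6 h to eight 6-fold-spaced concentrations in 0.2% DMSO. DC50 values were obtained from a Hill-equation fit (top, bottom, slope) of % inhibition.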

[2] = test system: HEK-293 cells; assay: HEK-293 cytotoxicity detection (CellTiter-Glo); type: cell-based; settings: Homo sapiens; HEK-293 cells, 72 h incubation, CellTiter-Glo luminescence, IC50 of cell proliferation inhibition; read-out: HEK293
Summary of the method: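 Four-parameter logistic fitting of percent inhibition versus concentration gives IC50. Luminescent ATP read-out (CellTiter-Glo) after 72 h compound treatment of HEK-293 cells, 8 doses in 4-fold steps from a 5 mM 500× DMSO stock, final DMSO 0.2%.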

T1 sequence (Q06187 whole entry): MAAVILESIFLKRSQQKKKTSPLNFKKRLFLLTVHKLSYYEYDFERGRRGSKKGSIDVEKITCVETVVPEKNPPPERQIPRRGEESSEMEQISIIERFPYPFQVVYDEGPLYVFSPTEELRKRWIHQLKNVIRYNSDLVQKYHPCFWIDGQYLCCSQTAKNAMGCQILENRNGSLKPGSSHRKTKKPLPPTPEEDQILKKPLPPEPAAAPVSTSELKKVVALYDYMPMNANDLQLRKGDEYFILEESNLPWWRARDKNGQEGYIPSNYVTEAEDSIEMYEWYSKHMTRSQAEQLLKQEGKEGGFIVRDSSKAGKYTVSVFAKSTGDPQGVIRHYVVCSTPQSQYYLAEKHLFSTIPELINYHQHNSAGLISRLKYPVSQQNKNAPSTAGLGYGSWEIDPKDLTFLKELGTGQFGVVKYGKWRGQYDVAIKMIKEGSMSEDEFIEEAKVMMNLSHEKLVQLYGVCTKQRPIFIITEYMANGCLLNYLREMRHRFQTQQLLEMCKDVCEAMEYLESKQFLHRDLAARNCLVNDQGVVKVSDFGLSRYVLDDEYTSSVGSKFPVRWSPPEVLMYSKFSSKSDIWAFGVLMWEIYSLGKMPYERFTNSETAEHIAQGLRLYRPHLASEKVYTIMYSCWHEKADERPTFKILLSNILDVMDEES

Row | SMILES | DC50 [1] [nM] | IC50 [2] [nM]
1 | Cc1cc(-c2ncnc3[nH]c4cc(N5CCC6(CCN(CC7CCN(c8ccc(N9CCC(=O)NC9=O)cc8)CC7)CC6)CC5)ccc4c23)ccc1[C@@H](C)NC(=O)c1nc(C(C)(C)C)no1 [Example 114, (R)-3-(tert-butyl)-N-(1-(4-(7-(9-((1-(4-(2,4-dioxotetrahydropyrimidin-1(2H)-yl)phenyl)piperidin-4-yl)methyl)-3,9-diazaspiro[5.5]undecan-3-yl)-9H-pyrimido[4,5-b]indol-4-yl)-2-methylphenyl)ethyl)-1,2,4-oxadiazole-5-carboxamide] | 1.89 | 923
2 | Cc1cc(-c2ncnc3[nH]c4cc(C5CCN(CC6CCN(c7ccc(N8CCC(=O)NC8=O)cc7)CC6)CC5)ncc4c23)ccc1[C@@H](C)NC(=O)c1nc(C(C)(C)C)no1 [Example 42, (R)-3-(tert-butyl)-N-(1-(4-(7-(1-((1-(4-(2,4-dioxotetrahydropyrimidin-1(2H)-yl)phenyl)piperidin-4-yl)methyl)piperidin-4-yl)-9H-pyrido[3′,4′:4,5]pyrrolo[2,3-d]pyrimidin-4-yl)-2-methylphenyl)ethyl)-1,2,4-oxadiazole-5-carboxamide] | 1.29 | 6730
3 | Cc1cc(-c2ncnc3[nH]c4cc(N5CCN(CC6CCN(c7ccc(N8CCC(=O)NC8=O)cc7)CC6)CC5)c(C)cc4c23)ccc1[C@@H](C)NC(=O)c1nc(C(C)(C)C)no1 [Example 43, (R)-3-(tert-butyl)-N-(1-(4-(7-(4-((1-(4-(2,4-dioxotetrahydropyrimidin-1(2H)-yl)phenyl)piperidin-4-yl)methyl)piperazin-1-yl)-6-methyl-9H-pyrimido[4,5-b]indol-4-yl)-2-methylphenyl)ethyl)-1,2,4-oxadiazole-5-carboxamide] | 1.22 | > 10000
4 | CC(C)(C)c1noc(C(=O)N[C@@H]2CCc3cc(-c4ncnc5[nH]c6cc(N7CCN(CC8CCN(c9ccc(N%10CCC(=O)NC%10=O)cc9)CC8)CC7)ccc6c45)ccc32)n1 [Example 37, (R)-3-(tert-butyl)-N-(5-(7-(4-((1-(4-(2,4-dioxotetrahydropyrimidin-1(2H)-yl)phenyl)piperidin-4-yl)methyl)piperazin-1-yl)-9H-pyrimido[4,5-b]indol-4-yl)-2,3-dihydro-1H-inden-1-yl)-1,2,4-oxadiazole-5-carboxamide] | 57.6 | > 10000
5 | Cc1cc(-c2ncnc3[nH]c4cc(N5CCC6(CC5)CCN([C@H]5C[C@H](c7ccc([C@@H]8CCC(=O)NC8=O)cc7)C5)CC6)ccc4c23)ccc1[C@@H](C)NC(=O)c1nc(C(C)(C)C)no1 [Example 110, 3-(tert-butyl)-N—((R)-1-(4-(7-(9-((1S,3r)-3-(4-((S)-2,6-dioxopiperidin-3-yl)phenyl)cyclobutyl)-3,9-diazaspiro[5.5]undecan-3-yl)-9H-pyrimido[4,5-b]indol-4-yl)-2-methylphenyl)ethyl)-1,2,4-oxadiazole-5-carboxamide] | 1.25 | 2000
6 | Cc1cc(-c2ncnc3[nH]c4cc(N5CCC6(CC5)CCN([C@H]5C[C@H](c7ccc(N[C@@H]8CCC(=O)NC8=O)cc7)C5)CC6)ccc4c23)ccc1[C@@H](C)NC(=O)c1nc(C(C)(C)C)no1 [Example 109, 3-(tert-butyl)-N—((R)-1-(4-(7-(9-((1R,3r)-3-(4-(((R)-2,6-dioxopiperidin-3-yl)amino)phenyl)cyclobutyl)-3,9-diazaspiro[5.5]undecan-3-yl)-9H-pyrimido[4,5-b]indol-4-yl)-2-methylphenyl)ethyl)-1,2,4-oxadiazole-5-carboxamide] | 6.07 | 1010
7 | COc1cc2c(cc1N1CCN(CC3CC(c4ccc(C5CCC(=O)NC5=O)cc4)C3)CC1)[nH]c1ncnc(-c3ccc([C@@H](C)NC(=O)c4nc(C(C)(C)C)no4)c(C)c3)c12 (stereo partly drawn) [Example 47, 3-(tert-butyl)-N-((1R)-1-(4-(7-(4-((3-(4-(2,6-dioxopiperidin-3-yl)phenyl)cyclobutyl)methyl)piperazin-1-yl)-6-methoxy-9H-pyrimido[4,5-b]indol-4-yl)-2-methylphenyl)ethyl)-1,2,4-oxadiazole-5-carboxamide] | 1.7 | > 10000
8 | Cc1cc(-c2ncnc3[nH]c4cc(C5CCN(C6CC(c7ccc([C@@H]8CCC(=O)NC8=O)cc7)C6)C5)ccc4c23)ccc1[C@@H](C)NC(=O)c1nc(C(C)(C)C)no1 (stereo partly drawn) [Example 21, 3-(tert-butyl)-N-((1R)-1-(4-(7-(1-(3-(4-((S)-2,6-dioxopiperidin-3-yl)phenyl)cyclobutyl)pyrrolidin-3-yl)-9H-pyrimido[4,5-b]indol-4-yl)-2-methylphenyl)ethyl)-1,2,4-oxadiazole-5-carboxamide] | 0.609 | 3600
9 | Cc1cc(-c2ncnc3[nH]c4cc(N5CCN(CC6CCN(c7ccc(N8CCC(=O)NC8=O)c(C)c7)CC6)CC5)ccc4c23)ccc1[C@@H](C)NC(=O)c1nc(C(C)(C)C)no1 [Example 8, (R)-3-(tert-butyl)-N-(1-(4-(7-(4-((1-(4-(2,4-dioxotetrahydropyrimidin-1(2H)-yl)-3-methylphenyl)piperidin-4-yl)methyl)piperazin-1-yl)-9H-pyrimido[4,5-b]indol-4-yl)-2-methylphenyl)ethyl)-1,2,4-oxadiazole-5-carboxamide] | 0.481 | > 10000
10 | Cc1cc(-c2ncnc3[nH]c4cc(N5CCC6(CC5)CCN(C5CC(c7ccc(C8CCC(=O)NC8=O)cc7)C5)C6)ccc4c23)ccc1[C@@H](C)NC(=O)c1nc(C(C)(C)C)no1 (stereo in doubt) [Example 101, 3-(tert-butyl)-N—((R)-1-(4-(7-(2-(3-(4-((R)-2,6-dioxopiperidin-3-yl)phenyl)cyclobutyl)-2,8-diazaspiro[4.5]decan-8-yl)-9H-pyrimido[4,5-b]indol-4-yl)-2-methylphenyl)ethyl)-1,2,4-oxadiazole-5-carboxamide] | 1.52 | 956
11 | Cc1cc(N2CCC(CN3CCN(c4ccc5c(c4)[nH]c4ncnc(-c6ccc([C@@H](C)NC(=O)c7noc(C(C)(C)C)n7)c(C)c6F)c45)CC3)CC2)ccc1N1CCC(=O)NC1=O [Example 28, (R)-5-(tert-butyl)-N-(1-(4-(7-(4-((1-(4-(2,4-dioxotetrahydropyrimidin-1(2H)-yl)-3-methylphenyl)piperidin-4-yl)methyl)piperazin-1-yl)-9H-pyrimido[4,5-b]indol-4-yl)-3-fluoro-2-methylphenyl)ethyl)-1,2,4-oxadiazole-3-carboxamide] | 0.309 | > 10000
12 | Cc1cc(-c2ncnc3[nH]c4cc(N5CCN(CCc6cccc7c6C6(CC6)C(=O)N7C6CCC(=O)NC6=O)CC5)ccc4c23)ccc1[C@@H](C)NC(=O)c1nc(C2(C)CC2)no1 (stereo partly drawn) [Example 124, N-((1R)-1-(4-(7-(4-(2-(1′-(2,6-dioxopiperidin-3-yl)-2′-oxospiro[cyclopropane-1,3′-indolin]-4′-yl)ethyl)piperazin-1-yl)-9H-pyrimido[4,5-b]indol-4-yl)-2-methylphenyl)ethyl)-3-(1-methylcyclopropyl)-1,2,4-oxadiazole-5-carboxamide] | 0.838 | > 10000
13 | COc1cc2c(cc1N1CCN(Cc3ccc4c(c3)n(C)c(=O)n4C3CCC(=O)NC3=O)CC1)[nH]c1ncnc(-c3ccc([C@@H](C)NC(=O)c4nc(C(C)(C)C)no4)c(C)c3)c12 (stereo partly drawn) [Example 69, 3-(tert-butyl)-N-((1R)-1-(4-(7-(4-((1-(2,6-dioxopiperidin-3-yl)-3-methyl-2-oxo-2,3-dihydro-1H-benzo[d]imidazol-5-yl)methyl)piperazin-1-yl)-6-methoxy-9H-pyrimido[4,5-b]indol-4-yl)-2-methylphenyl)ethyl)-1,2,4-oxadiazole-5-carboxamide] | 0.266 | > 10000
14 | Cc1cc(-c2ncnc3[nH]c4cc(N5CCN(C6CC(c7ccc([C@H]8CCC(=O)NC8=O)cc7)C6)CC5)ccc4c23)c(F)cc1[C@@H](C)NC(=O)c1nc(C(C)(C)C)no1 (stereo partly drawn) [Example 26, 3-(tert-butyl)-N—((R)-1-(4-(7-(4-(3-(4-((R)-2,6-dioxopiperidin-3-yl)phenyl)cyclobutyl)piperazin-1-yl)-9H-pyrimido[4,5-b]indol-4-yl)-5-fluoro-2-methylphenyl)ethyl)-1,2,4-oxadiazole-5-carboxamide] | 2.2 | > 10000
15 | Cc1c([C@@H](C)NC(=O)c2noc(C(C)(C)C)n2)ccc(-c2ncnc3[nH]c4cc(N5CCN(C6CCN(Cc7ccc8c(c7)n(C7CCC(=O)NC7=O)c(=O)n8C)CC6)CC5)ccc4c23)c1F (stereo partly drawn) [Example 87, 5-(tert-butyl)-N-((1R)-1-(4-(7-(4-(1-((3-(2,6-dioxopiperidin-3-yl)-1-methyl-2-oxo-2,3-dihydro-1H-benzo[d]imidazol-5-yl)methyl)piperidin-4-yl)piperazin-1-yl)-9H-pyrimido[4,5-b]indol-4-yl)-3-fluoro-2-methylphenyl)ethyl)-1,2,4-oxadiazole-3-carboxamide] | > 2000 | > 10000
16 | Cc1cc(-c2ncnc3[nH]c4cc(C5CCN(C6CC(c7ccc(C8CCC(=O)NC8=O)cc7)C6)CC5)ncc4c23)ccc1[C@@H](C)NC(=O)c1nc(C(C)(C)C)no1 (stereo partly drawn) [Example 41, 3-(tert-butyl)-N-((1R)-1-(4-(7-(1-(3-(4-(2,6-dioxopiperidin-3-yl)phenyl)cyclobutyl)piperidin-4-yl)-9H-pyrido[3′,4′:4,5]pyrrolo[2,3-d]pyrimidin-4-yl)-2-methylphenyl)ethyl)-1,2,4-oxadiazole-5-carboxamide] | 1.85 | 3350
